Publication PMC8081376 (Mutagenesis, 2020)

Experiments:
[1] = test system: Phenion®FT Skin Models (keratinocytes and fibroblasts); conditions: application of the dye to the skin; ref [95]; cited from earlier work
[2] = test system: bacterial reverse mutation test (Ames test) strains; conditions: cited from earlier work
[3] = test system: mammalian cells (V79, CHO, CHL, HuLy, TK6, HepG2); conditions: cited from earlier work
[4] = test system: Phenion®FT Skin Models (keratinocytes and fibroblasts)
[5] = test system: PRH, HepG2, CHO, TK6, CHL, MA-10 cells; conditions: TK6 cell line; ref [73]; cited from earlier work
rats and mice = conditions: rodent studies; topical for sodium xylene sulfonate; ref [65], [72], [82], [85]; cited from earlier work
[6] = test system: mammalian cells (CHL, V79, CHO, HuLy); conditions: cited from earlier work
[7] = test system: bone marrow, blood, liver, skin; conditions: cited from earlier work

Compound | RS Comet assay outcome in SCCS opinion [1] | Ames test [2] | Standard in vitro micronucleus test [3] | Call of statistical prediction models 1 and 2 [4] | Effect on % tail DNA / DNA migration in APC experiment [4] | Effect on % tail DNA / DNA migration in standard experiment [4] | Expert call of the performing laboratory in the coded phase [4] | RS Comet assay overall classification [4] | Dose producing signs of strong cytotoxicity that limited the top dose (Phenion®FT Skin Models) | In vitro comet assay [5] | Carcinogenicity (rats and mice) | In vitro chromosomal aberration studies [6] | In vivo micronucleus test in mice [7]
C[N+](C)(C)c1ccc2ccc(O)c(N=Nc3ccc(N)c([N+](=O)[O-])c3)c2c1.[Cl-] [Basic Brown 17] | lack of DNA damaging properties | positive findings | negative findings | – | – | – | – | – | – | – | – | – | –
O=CC=O [Glyoxal] | – | – | – | positive | statistically significant increase in DNA migration was observed in keratinocytes at the highest dose tested | DNA migration was not increased in either cell type | negative | negative | 25 µg/cm^2 | positive response | non-carcinogenic | clear positive results | negative results
